Some targets named below: Carbonic anhydrase 9 (Homo sapiens, UniProt Q16790); Carbonic anhydrase 13 (Mus musculus, UniProt Q9D6N1); Carbonic anhydrase 3 (Homo sapiens, UniProt P07451); Carbonic anhydrase 4 (Homo sapiens, UniProt P22748); Carbonic anhydrase 6 (Homo sapiens, UniProt P23280); Carbonic anhydrase 7 (Homo sapiens, UniProt P43166); Carbonic anhydrase 12 (Homo sapiens, UniProt O43570); Carbonic anhydrase 14 (Homo sapiens, UniProt Q9ULX7).

Experiment [1] deals with Carbonic anhydrase 5A, mitochondrial (Homo sapiens, UniProt P35218).
Carbonic anhydrase 5A, mitochondrial, sequence (P35218 whole entry): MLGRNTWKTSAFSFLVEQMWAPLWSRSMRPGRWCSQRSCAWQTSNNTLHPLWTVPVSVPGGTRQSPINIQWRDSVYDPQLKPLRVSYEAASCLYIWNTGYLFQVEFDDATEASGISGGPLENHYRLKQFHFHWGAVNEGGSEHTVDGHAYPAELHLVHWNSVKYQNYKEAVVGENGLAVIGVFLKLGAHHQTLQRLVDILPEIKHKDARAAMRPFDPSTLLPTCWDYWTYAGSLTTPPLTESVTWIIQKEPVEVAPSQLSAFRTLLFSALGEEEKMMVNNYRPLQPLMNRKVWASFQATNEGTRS
For experiment [2], the target named is Carbonic anhydrase 5B, mitochondrial (Homo sapiens, UniProt Q9Y2D0).
Carbonic anhydrase 5B, mitochondrial, sequence (Q9Y2D0 whole entry): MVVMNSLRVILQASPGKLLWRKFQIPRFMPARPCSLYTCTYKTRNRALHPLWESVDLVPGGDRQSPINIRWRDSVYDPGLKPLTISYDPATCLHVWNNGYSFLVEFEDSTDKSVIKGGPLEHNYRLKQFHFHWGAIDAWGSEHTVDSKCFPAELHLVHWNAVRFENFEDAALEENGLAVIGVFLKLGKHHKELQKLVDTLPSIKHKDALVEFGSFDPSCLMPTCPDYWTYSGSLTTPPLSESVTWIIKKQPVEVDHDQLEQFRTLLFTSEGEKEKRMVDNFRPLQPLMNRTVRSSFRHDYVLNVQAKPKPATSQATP
Another experiment concerns the target T1, Carbonic anhydrase 15 (Mus musculus, UniProt Q99N23).
T1 sequence (Q99N23 whole entry): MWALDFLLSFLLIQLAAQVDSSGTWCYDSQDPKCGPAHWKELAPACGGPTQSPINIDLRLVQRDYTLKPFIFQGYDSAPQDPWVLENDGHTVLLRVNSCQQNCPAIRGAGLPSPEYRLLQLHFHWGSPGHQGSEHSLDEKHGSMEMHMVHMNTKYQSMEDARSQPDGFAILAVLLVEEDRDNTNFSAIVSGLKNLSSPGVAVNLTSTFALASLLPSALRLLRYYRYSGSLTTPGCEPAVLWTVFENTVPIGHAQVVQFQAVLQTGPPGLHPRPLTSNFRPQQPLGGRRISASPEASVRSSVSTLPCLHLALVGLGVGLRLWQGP

Experiment [3] addresses T2, Carbonic anhydrase 2 (Homo sapiens, UniProt P00918).
In experiment [4] the target is T2, Carbonic anhydrase 2. The source holds these as a separate data set.

Carbonic anhydrase 14, sequence (Q9ULX7 whole entry): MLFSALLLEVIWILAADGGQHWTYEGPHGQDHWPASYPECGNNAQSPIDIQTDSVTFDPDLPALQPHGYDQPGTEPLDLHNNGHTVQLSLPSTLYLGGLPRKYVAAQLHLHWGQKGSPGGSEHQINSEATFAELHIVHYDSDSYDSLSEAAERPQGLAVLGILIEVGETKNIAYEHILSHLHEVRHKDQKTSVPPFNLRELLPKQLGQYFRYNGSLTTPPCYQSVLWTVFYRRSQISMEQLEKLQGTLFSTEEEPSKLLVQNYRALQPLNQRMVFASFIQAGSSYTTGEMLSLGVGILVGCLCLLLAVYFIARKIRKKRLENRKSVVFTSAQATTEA
Carbonic anhydrase 12, sequence (O43570 whole entry): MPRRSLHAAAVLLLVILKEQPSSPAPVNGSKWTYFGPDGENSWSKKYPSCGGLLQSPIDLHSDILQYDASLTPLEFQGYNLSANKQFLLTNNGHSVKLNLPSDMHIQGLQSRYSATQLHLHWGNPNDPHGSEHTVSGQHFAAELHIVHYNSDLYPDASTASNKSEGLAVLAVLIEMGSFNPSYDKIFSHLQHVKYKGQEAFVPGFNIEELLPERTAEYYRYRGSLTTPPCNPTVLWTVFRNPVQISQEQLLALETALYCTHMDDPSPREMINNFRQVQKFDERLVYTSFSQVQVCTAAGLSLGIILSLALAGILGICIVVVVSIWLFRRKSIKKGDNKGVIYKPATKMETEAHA
Carbonic anhydrase 4, sequence (P22748 whole entry): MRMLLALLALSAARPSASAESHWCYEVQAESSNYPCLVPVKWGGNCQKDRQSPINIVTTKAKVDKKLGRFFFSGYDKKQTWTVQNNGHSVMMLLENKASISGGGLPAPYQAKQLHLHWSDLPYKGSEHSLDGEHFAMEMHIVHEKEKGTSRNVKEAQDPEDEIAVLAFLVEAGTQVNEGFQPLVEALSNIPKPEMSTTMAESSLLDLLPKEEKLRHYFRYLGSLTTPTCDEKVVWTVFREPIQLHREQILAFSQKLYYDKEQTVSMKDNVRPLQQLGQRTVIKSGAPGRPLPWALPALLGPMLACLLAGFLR
Carbonic anhydrase 13, sequence (Q9D6N1 whole entry): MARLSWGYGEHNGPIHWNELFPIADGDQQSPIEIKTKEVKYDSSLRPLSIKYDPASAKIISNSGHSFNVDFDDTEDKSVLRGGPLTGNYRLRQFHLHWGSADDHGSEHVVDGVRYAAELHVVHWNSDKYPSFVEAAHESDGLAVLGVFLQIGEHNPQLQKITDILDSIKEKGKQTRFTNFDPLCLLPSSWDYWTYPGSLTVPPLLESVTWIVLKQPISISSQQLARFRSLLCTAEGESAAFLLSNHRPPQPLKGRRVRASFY
Carbonic anhydrase 7, sequence (P43166 whole entry): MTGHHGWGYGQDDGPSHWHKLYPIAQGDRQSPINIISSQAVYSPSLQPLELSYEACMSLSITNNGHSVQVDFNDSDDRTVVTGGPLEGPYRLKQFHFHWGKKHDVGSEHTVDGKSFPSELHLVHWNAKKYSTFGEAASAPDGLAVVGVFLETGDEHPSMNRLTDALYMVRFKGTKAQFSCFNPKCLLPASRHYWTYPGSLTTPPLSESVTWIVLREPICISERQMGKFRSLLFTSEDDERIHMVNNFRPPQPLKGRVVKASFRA
Carbonic anhydrase 6, sequence (P23280 whole entry): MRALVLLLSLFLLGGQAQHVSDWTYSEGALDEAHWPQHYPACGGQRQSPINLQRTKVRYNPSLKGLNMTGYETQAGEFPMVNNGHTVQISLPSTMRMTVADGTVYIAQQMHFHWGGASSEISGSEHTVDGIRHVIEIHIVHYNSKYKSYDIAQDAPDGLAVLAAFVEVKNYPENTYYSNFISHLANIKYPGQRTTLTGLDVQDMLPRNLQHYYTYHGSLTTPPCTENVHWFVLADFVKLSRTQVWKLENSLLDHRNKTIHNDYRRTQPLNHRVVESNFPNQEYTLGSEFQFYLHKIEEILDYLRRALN
Carbonic anhydrase 3, sequence (P07451 whole entry): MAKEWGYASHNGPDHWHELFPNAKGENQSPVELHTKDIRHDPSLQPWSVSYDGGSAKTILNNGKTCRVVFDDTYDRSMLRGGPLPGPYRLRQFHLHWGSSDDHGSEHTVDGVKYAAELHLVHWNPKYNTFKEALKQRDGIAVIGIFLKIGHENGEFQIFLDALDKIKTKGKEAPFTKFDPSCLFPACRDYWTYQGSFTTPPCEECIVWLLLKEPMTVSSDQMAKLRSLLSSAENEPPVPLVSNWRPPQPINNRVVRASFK

For orientation: Ki means the dissociation constant of the complex between target and ligand, obtained from inhibition or displacement. Read a high Ki as lower affinity. Turning to `COc1ccc2c(C(=O)O)cc(=O)oc2c1`, the Ki at Carbonic anhydrase 9 came to 4.1 µM; at Carbonic anhydrase 13 it was 0.045 µM.

With `CCOc1ccc2ccc(=O)oc2c1`, the Ki on Carbonic anhydrase 3 was found to be 29 µM; on Carbonic anhydrase 4, 22.7 µM; in experiment [1], 7.3 µM; in experiment [2], 60.9 µM; on Carbonic anhydrase 6, 5.8 µM; on Carbonic anhydrase 7, 7.2 µM. Besides, the inhibition constant Ki on Carbonic anhydrase 9 stood at 1.6 µM; on Carbonic anhydrase 12 it was 4.7 µM; on Carbonic anhydrase 13 it was 27.4 µM; on Carbonic anhydrase 14, 4.7 µM; on Carbonic anhydrase 15 it was 76.3 µM.

For `NCc1ccc2oc(=O)ccc2c1`, the Ki stood at 8.4 µM at Carbonic anhydrase 9 and 0.04 µM on Carbonic anhydrase 13.

On to `O=c1ccc2ccc(CCc3ccccc3)cc2o1`, for which the Ki on Carbonic anhydrase 6 is 8.5 µM; on Carbonic anhydrase 9, 5.8 µM; on Carbonic anhydrase 13, 7.3 µM; at Carbonic anhydrase 15, 44.5 µM.

As for `COC(=O)c1cc2cc(CO)ccc2oc1=O`, the inhibitory constant (Ki) on Carbonic anhydrase 4 was 6.5 µM; at Carbonic anhydrase 9, 8.7 µM; at Carbonic anhydrase 13 it was 7.4 µM; on Carbonic anhydrase 15, 7.4 µM.

For the molecule `CCOC(=O)c1cc2cc(CO)ccc2oc1=O`, the Ki came to 24.6 µM on Carbonic anhydrase 2 [3]; 60.9 µM at Carbonic anhydrase 3; 0.048 µM on Carbonic anhydrase 4; 3 µM in [1]; 2.9 µM in [2]; 1.5 µM at Carbonic anhydrase 6. In addition, the Ki on Carbonic anhydrase 7 was 0.045 µM; at Carbonic anhydrase 9 it was 6.2 µM; at Carbonic anhydrase 12, 25.6 µM; at Carbonic anhydrase 14 it was 4.6 µM; on Carbonic anhydrase 2 [4], 213 µM.

At Carbonic anhydrase 9, `COc1cccc2cc(C(=O)O)c(=O)oc12` had a Ki of 5.4 µM.

Regarding `CCOC(=O)c1cc2ccc(OC)cc2oc1=O`, the Ki at Carbonic anhydrase 3 was 71.7 µM; at Carbonic anhydrase 4, 7.2 µM; in experiment [2], 8 µM; at Carbonic anhydrase 6 it was 42 µM; at Carbonic anhydrase 13 it was 0.045 µM; at Carbonic anhydrase 15 it was 6.6 µM.

For `COc1ccc2oc(=O)c(C(=O)O)cc2c1`, the Ki at Carbonic anhydrase 2 [3] stood at 13.4 µM; at Carbonic anhydrase 3 it was 9 µM; on Carbonic anhydrase 4, 4.9 µM; in experiment [1], 8.7 µM; in [2] it was 7.6 µM; on Carbonic anhydrase 6 it was 10.5 µM. The inhibition constant Ki on Carbonic anhydrase 7 worked out at 4.9 µM; at Carbonic anhydrase 9, 5.7 µM; at Carbonic anhydrase 12 it was 6.8 µM; at Carbonic anhydrase 13, 8.1 µM; on Carbonic anhydrase 14 it was 39.6 µM; at Carbonic anhydrase 15 it was 7.2 µM. Further, the Ki on Carbonic anhydrase 2 [4] amounted to 0.059 µM.

For the molecule `O=C(O)c1cc2cc(CO)ccc2oc1=O`, the figures for the inhibitory constant (Ki) on Carbonic anhydrase 13 and on Carbonic anhydrase 15 were 3.1 µM and 8.6 µM, respectively.

On to `O=C(O)c1cc2ccccc2sc1=O`, for which the Ki at Carbonic anhydrase 3 is above 500 µM; on Carbonic anhydrase 6, 8.8 µM; on Carbonic anhydrase 13, 5.6 µM; at Carbonic anhydrase 15 it was 4.8 µM.

`O=c1ccc2cc(CO)ccc2o1`: the figures for the Ki at Carbonic anhydrase 9, at Carbonic anhydrase 13 and at Carbonic anhydrase 15 were 8.4 µM, 0.047 µM and 7.4 µM, respectively.

On to `COc1cc2oc(=O)ccc2cc1[C@@H](O)CC(C)C`, for which the results for the inhibitory constant (Ki) on Carbonic anhydrase 13 and on Carbonic anhydrase 15 were 9.9 µM and 93.1 µM, respectively.

Take `Cc1ccc2oc(=O)c(C(=O)O)cc2c1`: the inhibition constant (Ki) is above 500 µM at Carbonic anhydrase 3, 31.7 µM at Carbonic anhydrase 6, 29.6 µM on Carbonic anhydrase 7 and 0.048 µM on Carbonic anhydrase 9.

For `O=c1ccc2cc(C[N+]34CN5CN(CN(C5)C3)C4)ccc2o1`, the Ki at Carbonic anhydrase 9 came out at 3 µM; on Carbonic anhydrase 13, 3.8 µM.

Consider `CCCCOc1ccc2ccc(=O)oc2c1` [7-BUTOXYCOUMARIN], for which the Ki in experiment [1] came to 9 µM; on Carbonic anhydrase 9 it was 4.9 µM; at Carbonic anhydrase 13, 6.1 µM; at Carbonic anhydrase 15, 65.2 µM.

Take `CCCOc1ccc2ccc(=O)oc2c1` [7-PROPOXYCOUMARIN]: the Ki on Carbonic anhydrase 3 was above 500 µM; on Carbonic anhydrase 4 it was 24.6 µM; on Carbonic anhydrase 13, 6.6 µM.

In the case of `O=C(O)c1cc2ccccc2oc1=O` [COUMARIN-3-CARBOXYLIC ACID], the inhibition constant (Ki) on Carbonic anhydrase 2 [3] was above 500 µM; at Carbonic anhydrase 3, 6.6 µM; on Carbonic anhydrase 4, 3.8 µM; in experiment [1], 9 µM; in experiment [2], 6.8 µM; at Carbonic anhydrase 6, 31.3 µM. In addition, the Ki is 5.1 µM on Carbonic anhydrase 7; 6.5 µM at Carbonic anhydrase 9; 2.9 µM at Carbonic anhydrase 12; 20.3 µM at Carbonic anhydrase 13; 7.4 µM at Carbonic anhydrase 14; 5.6 µM on Carbonic anhydrase 15.

Turning to `O=c1ccc2ccccc2o1` [COUMARIN], the inhibition constant Ki at Carbonic anhydrase 3 was determined as 5.6 µM; on Carbonic anhydrase 4 it was 62.2 µM; on Carbonic anhydrase 7, 3.3 µM.

With `COc1ccc2ccc(=O)oc2c1` [HERNIARIN], the inhibition constant (Ki) was 161 µM on Carbonic anhydrase 3; 7.8 µM on Carbonic anhydrase 4; above 500 µM in experiment [1]; 61.2 µM on Carbonic anhydrase 6; 9.1 µM at Carbonic anhydrase 7; above 500 µM on Carbonic anhydrase 15.

For the origin of these results see ChEMBL document CHEMBL1156762, “Deciphering the mechanism of carbonic anhydrase inhibition with coumarins and thiocoumarins” (J Med Chem, 2010).
